What was measured:
Assay in all cases: relative viability (nuclei count vs DMSO), 5 days (fraction); higher = more cells survive
Dabrafenib + Bortezomib = compound: CC(C)(C)c1nc(-c2cccc(NS(=O)(=O)c3c(F)cccc3F)c2F)c(-c2ccnc(N)n2)s1 [Dabrafenib] + CC(C)C[C@H](NC(=O)[C@H](Cc1ccccc1)NC(=O)c1cnccn1)B(O)O [Bortezomib] (partner 0.002 µM)
Procedure, shortened: (§1)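 Lung cancer cell lines in 1536-well plates got either a single drug or a fixed anchor-drug dose together with five library-drug doses (not always all listed) in √10 steps, by pin tool, on the day after seeding. Nuclei were counted after 5 days, and relative viability is the treated-to-vehicle ratio of nuclei counts. Values are medians of duplicate plates.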

Dabrafenib + Vorinostat = compound: CC(C)(C)c1nc(-c2cccc(NS(=O)(=O)c3c(F)cccc3F)c2F)c(-c2ccnc(N)n2)s1 [Dabrafenib] + O=C(CCCCCCC(=O)Nc1ccccc1)NO [Vorinostat] (partner 1 µM)
Procedure, shortened: as §1

VX-702 + Phenformin = compound: NC(=O)c1ccc(N(C(N)=O)c2c(F)cccc2F)nc1-c1ccc(F)cc1F [VX-702] + N=C(N)NC(=N)NCCc1ccccc1 [Phenformin] (partner 250 µM)
Procedure, shortened: as §1

VX-702 + AZD7762 = compound: NC(=O)c1ccc(N(C(N)=O)c2c(F)cccc2F)nc1-c1ccc(F)cc1F [VX-702] + NC(=O)Nc1cc(-c2cccc(F)c2)sc1C(=O)N[C@H]1CCCNC1 [AZD7762] (partner 0.2 µM)
Procedure, shortened: as §1

| Cell Line | relative viability (Dabrafenib + Bortezomib; first compound 0.009487 µM) | relative viability (Dabrafenib + Bortezomib; first compound 0.03 µM) | relative viability (Dabrafenib + Bortezomib; first compound 0.09487 µM) | relative viability (Dabrafenib + Bortezomib; first compound 0.3 µM) | relative viability (Dabrafenib + Vorinostat; first compound 0.003 µM) | relative viability (Dabrafenib + Vorinostat; first compound 0.009487 µM) | relative viability (Dabrafenib + Vorinostat; first compound 0.03 µM) | relative viability (Dabrafenib + Vorinostat; first compound 0.09487 µM) | relative viability (Dabrafenib + Vorinostat; first compound 0.3 µM) | relative viability (VX-702 + Phenformin; first compound 0.02 µM) | relative viability (VX-702 + Phenformin; first compound 0.2 µM) | relative viability (VX-702 + Phenformin; first compound 0.6325 µM) | relative viability (VX-702 + Phenformin; first compound 2 µM) | relative viability (VX-702 + AZD7762; first compound 0.02 µM) | relative viability (VX-702 + AZD7762; first compound 0.2 µM) | relative viability (VX-702 + AZD7762; first compound 0.6325 µM) | relative viability (VX-702 + AZD7762; first compound 2 µM) | relative viability (Dabrafenib + Bortezomib; first compound 0.003 µM) |
| --- | --- | --- | --- | --- | --- | --- | --- | --- | --- | --- | --- | --- | --- | --- | --- | --- | --- | --- |
| HOP-62 | 0.809 | 0.861 | 0.235 | 0.706 | 0.199 | 0.806 | 0.555 | 0.341 | 0.5 | 0.809 | 0.656 | 0.698 | 0.708 | 0.95 | 0.409 | 1.08 | 0.465 |  |
| IA-LM | 0.646 | 0.492 | 0.471 | 0.222 |  | 0.957 | 0.983 | 0.829 | 1.07 |  |  |  |  |  |  |  |  | 0.84 |
| LC-2-ad | 1.03 | 0.969 | 0.918 | 1.09 | 0.74 | 0.736 | 0.73 | 0.613 | 0.686 | 0.574 | 0.647 | 0.551 | 0.612 | 0.837 | 0.854 | 0.892 | 0.973 | 1.04 |
| LK-2 |  |  |  |  | 0.333 | 0.228 | 0.268 | 0.265 | 0.34 | 0.38 | 0.478 | 0.354 | 0.387 | 0.312 | 0.234 | 0.343 | 0.292 |  |
| NCI-H358 |  |  |  |  | 0.86 | 0.695 | 0.741 | 0.689 | 0.72 | 0.318 | 0.293 | 0.289 | 0.429 | 0.542 | 0.461 | 0.45 | 0.572 |  |
| NCI-H520 | 0.59 | 0.476 | 0.544 | 0.731 | 0.82 | 0.753 | 0.63 | 0.823 | 0.74 | 0.67 | 0.648 | 0.525 | 0.535 |  |  |  |  | 0.584 |
| NCI-H522 |  |  |  |  |  | 1.06 | 0.864 | 0.815 | 0.93 | 0.584 | 0.691 | 0.611 | 0.672 | 0.92 | 0.833 | 0.689 | 0.931 |  |
| NCI-H661 | 0.868 | 0.437 | 0.719 | 0.789 | 0.889 | 0.778 | 0.804 | 0.767 | 0.842 | 0.296 | 0.329 | 0.298 | 0.299 |  |  |  |  | 0.647 |
| NCI-H1299 | 0.97 | 1 | 0.993 | 1 |  |  |  |  |  |  |  |  |  |  |  |  |  | 0.962 |
| NCI-H1395 |  |  |  |  |  | 0.699 | 0.719 | 0.662 | 0.667 | 0.465 | 0.445 | 0.454 | 0.46 | 0.419 | 0.427 | 0.411 | 0.408 |  |
| NCI-H1563 | 0.897 | 0.687 | 0.898 | 0.929 |  |  |  |  |  | 0.702 | 0.684 | 0.694 | 0.592 |  |  |  |  | 0.855 |
| NCI-H1623 |  |  |  |  |  |  |  |  |  | 0.583 | 0.469 | 0.917 | 0.535 |  |  |  |  |  |
| NCI-H1648 |  |  |  |  | 0.459 | 0.429 |  | 0.499 | 0.421 |  |  |  |  | 0.709 | 0.583 | 0.634 | 0.563 |  |
| NCI-H1650 | 0.214 | 0.24 | 0.177 | 0.217 | 0.547 | 0.528 | 0.711 | 0.608 | 0.659 | 0.542 | 0.625 | 0.411 | 0.468 |  |  |  |  | 0.183 |
| NCI-H1703 | 0.496 | 0.409 | 0.28 | 0.43 |  |  |  |  |  |  |  |  |  | 0.123 | 0.117 |  | 0.115 | 0.422 |
| NCI-H1792 | 0.923 | 0.897 | 0.885 | 0.893 |  |  |  |  |  | 0.314 | 0.303 | 0.45 | 0.237 | 0.635 | 0.669 | 0.707 | 0.706 |  |
| NCI-H1793 |  |  |  |  |  | 1.12 |  | 0.877 | 0.873 | 0.284 | 0.331 | 0.415 | 0.358 | 0.663 |  | 0.542 | 0.379 |  |
| NCI-H1944 |  |  |  |  | 0.445 | 0.529 | 0.508 | 0.659 | 0.483 | 0.228 | 0.202 | 0.2 | 0.161 | 0.565 | 0.491 | 0.557 | 0.358 |  |
| NCI-H2009 | 1.06 | 0.907 | 0.554 | 0.517 | 0.651 | 0.64 | 0.673 | 0.414 | 0.574 | 0.572 | 0.56 | 0.577 | 0.617 |  |  |  |  | 0.342 |
| NCI-H2023 | 1.09 | 1.04 | 0.977 | 1.02 | 0.716 | 0.717 | 0.733 | 0.559 | 0.6 | 0.407 | 0.469 | 0.413 | 0.559 |  |  |  |  | 0.78 |
| NCI-H2170 |  |  |  |  | 0.777 | 0.798 | 0.703 | 0.647 | 0.732 | 0.475 | 0.442 | 0.429 | 0.451 | 1.05 | 0.834 | 1.08 | 0.941 |  |
| NCI-H2228 | 0.829 | 0.859 | 0.912 | 1.03 | 0.501 | 0.53 | 0.656 | 0.381 | 0.877 | 0.48 | 0.354 | 0.324 | 0.34 |  |  |  |  | 0.897 |
| NCI-H2342 |  |  |  |  | 0.551 | 0.702 | 0.664 | 0.696 | 0.721 | 0.594 | 0.686 | 0.58 | 0.719 | 0.607 | 0.644 | 0.6 | 0.552 |  |
| SK-LU-1 | 1.12 |  | 0.607 | 0.871 |  | 0.716 | 0.692 | 0.605 | 0.651 | 0.636 | 0.508 | 0.524 | 0.531 |  |  |  |  |  |
| SK-MES-1 |  |  |  |  |  | 1.05 | 1.14 | 1.04 | 0.854 | 0.678 | 0.663 | 0.725 | 0.73 |  |  |  |  |  |
| SW 1573 | 1.16 | 1.13 | 0.996 | 1.17 | 0.73 | 0.719 | 0.672 | 0.552 | 0.673 | 0.364 | 0.261 | 0.282 | 0.327 |  |  |  |  | 1.11 |
| UMC-11 | 0.637 | 0.647 | 0.681 | 0.735 | 0.379 | 0.362 | 0.409 | 0.473 | 0.454 | 0.34 | 0.346 | 0.301 | 0.363 |  |  |  |  | 1.05 |

— the supplement of paper PMC10307832
